Measured values published in ChEMBL document CHEMBL3046435, “Isolation and identification of insecticidal components from Citrus aurantium fruit peel extract” (2008).
Active and inactive are the calls of the source. No cut-off for these calls is given here.

What was measured:
Bactrocera oleae [1] = test: Insecticidal activity against Bactrocera oleae exposed to 0.45 ug/cm2 compound for 12 hr assessed as insect mortality measured 72 hr post dose by petri dish exposure bioassay (reference value: 2 +/- 2%); format: functional, organism-based
Bactrocera oleae [2] = test: Insecticidal activity against Bactrocera oleae exposed to 1.12 ug/cm2 compound for 12 hr assessed as insect mortality measured 72 hr post dose by petri dish exposure bioassay (reference value: 2 +/- 2%); format: functional
Bactrocera oleae [3] = test: Insecticidal activity against Bactrocera oleae exposed to compound for 12 hr assessed as insect mortality measured 72 hr post dose by petri dish exposure bioassay (reference value: 2 +/- 2%); format: functional, organism-based

Row | SMILES | Activity (Bactrocera oleae [1]) | mortality (Bactrocera oleae [2]) [%] | Activity (Bactrocera oleae [3])
1 | COc1ccc2ccc(=O)oc2c1CC=C(C)C | inactive |  | 
2 | C/C(=C\COc1c2ccoc2cc2oc(=O)ccc12)CCC1OC1(C)C (centres undefined) [6',7'-EPOXYBERGAMOTTIN] |  | 48 | 
3 | COc1c2ccoc2cc2oc(=O)ccc12 | inactive |  | inactive
